The target of assay [1] is T1, KCNQ2/3 channels (Homo sapiens, UniProt O43525+O43526).
T1 construct: expressed in transfected cells
Kind of assay: Fluorescence assay using a voltage sensitive dye (fluorimetry). The class given is cell-based. To be noted: for Emax: CHO-K1, CHO-K1 cells expressing KCNQ2/3 channels, read-out: Fluorimetry % efficacy (retigabine = 100%); for Emax / Fluorimetry % efficacy (retigabine = 100%): plateau effect relative to saturated Retigabine (50 µM) = 100%; for EC50 / Fluorimetry % efficacy (retigabine = 100%): CHO-K1 cells expressing KCNQ2/3 channels; for EC50: voltage-sensitive dye, KCl depolarization, read-out: Fluorimetry EC50 / IC50. An excerpt: Method I. Fluorescence assay using a voltage sensitive dye (fluorimetry)
The modulation of the KCNQ opening state (and consequently the voltage potential of a cell) by test compounds such as compounds according to the present invention results in an increased or reduced amount of a voltage-sensitive dye in the cytoplasm of the cells tested. These voltage-sensitive dyes are fluorescent dyes and, therefore, are forming the link between cell potential influenced by KCNQ modulation and fluorescence intensity. A KCNQ agonist leads to an opening of the channel, potassium and dye efflux, a following hyperpolarization and a reduction of the inner fluorescence intensity in a kinetic protocol. If applying an ion jump by KCl depolarization, KCNQ agonists increase the ΔF/F value. An antagonist performs vice versa, respectively.
The 'fluorimetry EC50' is the half maximum effective concentration (EC50), where the concentration of a drug/compound induces a response halfway between the baseline and maximum plateau effect. In other words, said value represents the concentration of a compound, where 50% of its maximal effect in the fluorimetric assay is observed if the substance concentration is graphed against the corresponding ΔF/F values (for which the calculation method is described below). Therefore, 'fluorimetry EC50' is a measure for the compound potency. The compound efficacy is mirrored by 'fluorimetry % efficacy' ('%Efficacy') and refers to the maximum response achievable by the test compound, i.e. the plateau effect. This drug's plateau effect is related to the plateau effect, which can be achieved by applying a saturated concentration of a reference compound, e.g. Retigabine (50 µM), in independent wells of the same experimental plate or series. A compound showing 100% efficacy is as efficacious as the reference compound (Retigabine) with a saturated concentration.
[…] CHO-K1 cells expressing KCNQ2/3 channels are cultivated adherently at 37°C, 5% CO2 and 95% humidity in cell culture bottles (e.g. 80 cm^2 TC flasks, Nunc) with DMEM-high glucose (Sigma Aldrich, D7777) including 10% FCS (PAN Biotech, e.g. 3302-P270521) or alternatively MEM Alpha Medium (1x, liquid, Invitrogen, #22571), 10% fetal calf serum (FCS) (Invitrogen, #10270-106, heat-inactivated) and the necessary selection antibiotics.
Before being sown out for the measurements, the cells are washed with 1 x DPBS buffer Ca^2+/Mg^2+-free (e.g. Invitrogen, #14190-094) and detached from the bottom of the culture vessel by using Accutase (PAA Laboratories, #L11-007) (incubation with Accutase for 15 min at 37°C). The cell number is determined using a CASY™ cell counter (TCC, Schärfe System). Depending on the optimal density for each individual cell line, 20,000-30,000 cells/well/100 µl are seeded onto 96-well Corning™ CellBIND™ assay plates (Flat Clear Bottom Black Polystyrene Microplates, #3340). Freshly seeded cells are then left to settle for one hour at room temperature, followed by incubation for 24 hours at 37°C, 5% CO2 and 95% humidity.
The voltage-sensitive fluorescent dye from the Membrane Potential Assay Kit (Red™ Bulk format part R8123 for FLIPR, MDS Analytical Technologies™) is prepared by dissolving the contents of one vessel Membrane Potential Assay Kit Red Component A in 200 ml of extracellular buffer (ES buffer, 120 mM NaCl, 1 mM KCI, 10 mM HEPES, 2 mM CaCl2, 2 mM MgCl2, 10 mM glucose; pH 7.4). After removal of the nutrient medium, the cells are washed once with 200 µl of ES buffer, then loaded for 45 min at room temperature in 100 µl of dye solution in the dark.
Fluorescence measurements are carried out in a BMG Labtech FLUOstar™, BMG Labtech NOVOstar™ or BMG Labtech POLARstar™ instrument (525 nm excitation, 560 nm emission, Bottom Read mode). […]

Assay [2] deals with withdrawal reflex of the rat tail (tail flick). The experiment in a line: Low-intensity tail flick test (rat). To be noted: MPE [%] at dose 10 mg/kg, dose printed in brackets in the cell. Type of assay: in vivo, Male Sprague-Dawley rats. How it is done:
Method II. Low-intensity tail flick test (rat)
In the low-intensity tail flick test, the determination of the antinociceptive effect of the compounds according to the invention towards an acute noxious thermal stimulus is carried out by measuring the withdrawal reflex of the rat tail (tail flick) in response to a radiant heat beam (analgesia meter; model 2011 of the company Rhema Labortechnik, Hofheim, Germany) according to the method described by D'Amour and Smith (J. Pharm. Exp. Ther. 72, 74 79 (1941). To this end, the rats were placed in a plexiglas restrainer, and a low-intensity radiant heat beam (48°C) was focused onto the dorsal surface of the tail root. […] Before administration of a compound according to the invention, the animals were pre-tested twice in the course of five minutes and the mean of these measurements was calculated as the pre-test mean. The antinociceptive effect was determined at 20, 40 and 60 min after peroral compound administration. The antinociceptive effect was calculated based on the increase in the tail withdrawal latency according to the following formula and is expressed as percentage of the maximum possible effect (MPE [%]): MPE = [(T1−T0)/(T2−T0)]*100 [formula] […]

As for `Cc1cc(N2CCOCC2)nc(C2CC2)c1C(=O)NCCC(O)C(C)(C)C` (single isomer, unassigned) [Example 1a, 2-cyclopropyl-N-(3-hydroxy-4,4-dimethyl-pentyl)-4-methyl-6-morpholin-4-yl-pyridine-3-carboxylic acid amide], in assay [1], the Emax was 242% and the EC50 was 961 nM.
For the compound `Cc1cc(N2CCOCC2)nc(C2CC2)c1C(=O)NCCC(O)C(C)(C)C` (single isomer, unassigned) [Example 1b, 2-cyclopropyl-N-(3-hydroxy-4,4-dimethyl-pentyl)-4-methyl-6-morpholin-4-yl-pyridine-3-carboxylic acid amide], in assay [1], the “Fluorimetry % efficacy (retigabine = 100%)” value (from here on “Fluorimetry % efficacy”) is 224% and the EC50 turned out to be 318 nM. For the same compound, the “Low intensity tail flick, rat, peroral, ED50 or MPE (dose)” value in assay [2] is reported as 100 (10) %.
Consider `Cc1cc(N2CCOCC2)nc(C(C)C)c1C(=O)NCCC(O)C(C)(C)C` (single isomer, unassigned) [Example 5a, N-(3-hydroxy-4,4-dimethyl-pentyl)-2-isopropyl-4-methyl-6-morpholin-4-yl-pyridine-3-carboxylic acid amide], for which, in assay [1], the Emax was 239% and the EC50 is 431 nM.
On to `Cc1cc(N2CCOCC2)nc(C(C)C)c1C(=O)NCCC(O)C(C)(C)C` (single isomer, unassigned) [Example 5b, N-(3-hydroxy-4,4-dimethyl-pentyl)-2-isopropyl-4-methyl-6-morpholin-4-yl-pyridine-3-carboxylic acid amide], for which, in assay [1], the “Fluorimetry % efficacy” value was 239% and the EC50 amounted to 94 nM.
The corresponding values for `Cc1cc(N2CCOCC2)nc(C(C)C)c1C(=O)NCCC(O)C(F)(F)F` (single isomer, unassigned) [Example 6a, 2-Isopropyl-4-methyl-6-morpholin-4-yl-N-(4,4,4-trifluoro-3-hydroxy-butyl)-pyridine-3-carboxylic acid amide] are 206% and 1090 nM.
On to `Cc1cc(N2CCOCC2)nc(C(C)C)c1C(=O)NCCC(O)C(F)(F)F` (single isomer, unassigned) [Example 6b, 2-Isopropyl-4-methyl-6-morpholin-4-yl-N-(4,4,4-trifluoro-3-hydroxy-butyl)-pyridine-3-carboxylic acid amide], for which, in assay [1], the “Fluorimetry % efficacy” value was 149% and the EC50 amounted to 3920 nM.
As to `Cc1cc(N2CCOCC2)nc(C2CC2)c1C(=O)NCCC(O)C(C)(C)C` (stereo not shown) [Example 1, 2-Cyclopropyl-N-(3-hydroxy-4,4-dimethyl-pentyl)-4-methyl-6-morpholin-4-yl-pyridine-3-carboxylic acid amide], in assay [1], the Emax is 237% and the EC50 amounted to 529 nM.
`Cc1cc(N2CCOCC2)nc(C2CC2)c1C(=O)NC[C@@H]1CCCC[C@H]1O` [Example 2, 2-Cyclopropyl-N-[[(1S,2R)-2-hydroxy-cyclohexyl]-methyl]-4-methyl-6-morpholin-4-yl-pyridine-3-carboxylic acid amide]: in assay [1], the Emax was found to be 245% and the EC50 is 483 nM. Besides, the “Low intensity tail flick, rat, peroral, ED50 or MPE (dose)” value in assay [2] was 67 (10) %.
For `Cc1cc(N2CCOCC2)nc(C2CC2)c1C(=O)NC[C@H]1CCCC[C@@H]1O` [Example 3, 2-Cyclopropyl-N-[[(1R,2S)-2-hydroxy-cyclohexyl]-methyl]-4-methyl-6-morpholin-4-yl-pyridine-3-carboxylic acid amide], in assay [1], the Emax is 99% and the EC50 amounted to 8550 nM.
Consider `Cc1cc(N2CCOCC2)nc(C(C)C)c1C(=O)NCCC(O)C(C)(C)C` (stereo not shown) [Example 5, N-(3-Hydroxy-4,4-dimethyl-pentyl)-2-isopropyl-4-methyl-6-morpholin-4-yl-pyridine-3-carboxylic acid amide], for which, in assay [1], the Emax amounted to 230% and the EC50 was determined as 156 nM.
In the same order, the values of `Cc1cc(N2CCOCC2)nc(C(C)C)c1C(=O)NCCC(O)C(F)(F)F` (stereo not shown) [Example 6, 2-Isopropyl-4-methyl-6-morpholin-4-yl-N-(4,4,4-trifluoro-3-hydroxy-butyl)-pyridine-3-carboxylic acid amide] are 150% and 1990 nM.
The corresponding values for `Cc1cc(N2CCOCC2)nc(C(C)C)c1C(=O)NC[C@@H]1CCCC[C@H]1O` [Example 7, N-[[(1S,2R)-2-Hydroxy-cyclohexyl]-methyl]-2-isopropyl-4-methyl-6-morpholin-4-yl-pyridine-3-carboxylic acid amide] are 243% and 185 nM.
`CCOc1nc(N2CCOCC2)cc(C)c1C(=O)NCCC(O)C(C)(C)C` (stereo not shown) [Example 8, 2-Ethoxy-N-(3-hydroxy-4,4-dimethyl-pentyl)-4-methyl-6-morpholin-4-yl-pyridine-3-carboxylic acid amide]: in assay [1], the Emax stood at 231% and the EC50 came to 252 nM.

These data come from EP2888233B1, “SUBSTITUTED 6-AMINO-NICOTINAMIDES BEARING AN OH-CONTAINING GROUP AS KCNQ2/3 MODULATORS” (Grünenthal GmbH, priority 2012, dated 2013).
